Laboratory results from PubChem BioAssay (NCI).
“And” between values parts separate entries of the source, which are not always exact repeats. Identical values can stand only once.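 1) Cells in 96-well plates. 2) Compound, 48 h, 5 concentrations. 3) Linear interpolation between surrounding doses. 4) Unreached endpoint = highest concentration. GI50 is the concentration that inhibits growth by half. The concentration for full growth arrest is given as TGI.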

How the values were obtained:
Assay in all cases: DTP human tumour cell line panel, 48 h
MCF7 breast = test system: MCF7 breast
MDA-MB-231 breast = test system: MDA-MB-231 breast
SW-620 colon = test system: SW-620 colon
NCI/ADR-RES ovarian = test system: NCI/ADR-RES ovarian
NCI-H460 lung = test system: NCI-H460 lung
HOP-92 NSCLC = test system: HOP-92 NSCLC
LOX IMVI melanoma = test system: LOX IMVI melanoma
SF-295 CNS = test system: SF-295 CNS
COLO 205 colon = test system: COLO 205 colon
HCC-2998 colon = test system: HCC-2998 colon
SK-MEL-5 melanoma = test system: SK-MEL-5 melanoma
MOLT-4 leukemia = test system: MOLT-4 leukemia
SNB-75 CNS = test system: SNB-75 CNS
U251 CNS = test system: U251 CNS
CCRF-CEM leukemia = test system: CCRF-CEM leukemia
MALME-3M melanoma = test system: MALME-3M melanoma
SF-268 CNS = test system: SF-268 CNS
ACHN renal = test system: ACHN renal
SN12C renal = test system: SN12C renal
HCT-15 colon = test system: HCT-15 colon
SK-OV-3 ovarian = test system: SK-OV-3 ovarian
TK-10 renal = test system: TK-10 renal
EKVX NSCLC = test system: EKVX NSCLC
DU-145 prostate = test system: DU-145 prostate
SK-MEL-28 melanoma = test system: SK-MEL-28 melanoma
SR leukemia = test system: SR leukemia
NCI-H23 lung = test system: NCI-H23 lung
BT-549 breast = test system: BT-549 breast
OVCAR-4 ovarian = test system: OVCAR-4 ovarian
KM12 colon = test system: KM12 colon
786-0 renal = test system: 786-0 renal
HS 578T breast = test system: HS 578T breast
RXF 393 renal = test system: RXF 393 renal
PC-3 prostate = test system: PC-3 prostate
NCI-H522 lung = test system: NCI-H522 lung
HCT-116 colon = test system: HCT-116 colon
OVCAR-3 ovarian = test system: OVCAR-3 ovarian
A549 NSCLC = test system: A549 NSCLC
HL-60(TB) leukemia = test system: HL-60(TB) leukemia
SK-MEL-2 melanoma = test system: SK-MEL-2 melanoma
IGROV1 ovarian = test system: IGROV1 ovarian
OVCAR-5 ovarian = test system: OVCAR-5 ovarian
CAKI-1 renal = test system: CAKI-1 renal
MDA-MB-435 = test system: MDA-MB-435
T-47D breast = test system: T-47D breast
UACC-62 melanoma = test system: UACC-62 melanoma
OVCAR-8 ovarian = test system: OVCAR-8 ovarian
RPMI-8226 leukemia = test system: RPMI-8226 leukemia
HT29 colon = test system: HT29 colon
M14 melanoma = test system: M14 melanoma
HOP-62 NSCLC = test system: HOP-62 NSCLC
NCI-H226 lung = test system: NCI-H226 lung
SNB-19 CNS = test system: SNB-19 CNS
SF-539 CNS = test system: SF-539 CNS
UO-31 renal = test system: UO-31 renal
K-562 leukemia = test system: K-562 leukemia
UACC-257 melanoma = test system: UACC-257 melanoma
A498 renal = test system: A498 renal

SMILES: CN(C)c1ccc(C(=N)c2ccc(N(C)C)cc2)cc1
- GI50 (MCF7 breast): 1.34 µM and 1.29 µM
- TGI (MCF7 breast): 32.3 µM and 38.3 µM
- GI50 (MDA-MB-231 breast): 5.77 µM and 7.67 µM
- TGI (MDA-MB-231 breast): 47.5 µM and 30.9 µM
- GI50 (SW-620 colon): 1.95 µM and 2.58 µM
- TGI (SW-620 colon): 20.8 µM and > 100 µM
- GI50 (NCI/ADR-RES ovarian): 1.68 µM and 1.52 µM
- TGI (NCI/ADR-RES ovarian): 7.42 µM and 5.04 µM
- GI50 (NCI-H460 lung): 3.01 µM and 3.54 µM
- TGI (NCI-H460 lung): 12.6 µM and 20 µM
- GI50 (HOP-92 NSCLC): 0.942 µM and 1.52 µM
- TGI (HOP-92 NSCLC): 6.24 µM and 8.69 µM
- GI50 (LOX IMVI melanoma): 5.37 µM and 4.92 µM
- TGI (LOX IMVI melanoma): 33 µM and 30.2 µM
- GI50 (SF-295 CNS): 2.01 µM and 3.4 µM
- TGI (SF-295 CNS): 11.9 µM and 21.9 µM
- GI50 (COLO 205 colon): 2.49 µM and 2.16 µM
- TGI (COLO 205 colon): 10.7 µM and 8.83 µM
- GI50 (HCC-2998 colon): 6.39 µM and 7.12 µM
- TGI (HCC-2998 colon): 33.6 µM and 32.6 µM
- GI50 (SK-MEL-5 melanoma): 2.74 µM and 2.92 µM
- TGI (SK-MEL-5 melanoma): 10.9 µM and 13.2 µM
- GI50 (MOLT-4 leukemia): 3.66 µM
- TGI (MOLT-4 leukemia): 26 µM
- GI50 (SNB-75 CNS): 1.65 µM and 1.63 µM
- TGI (SNB-75 CNS): 11.4 µM and 7.35 µM
- GI50 (U251 CNS): 3.54 µM and 3.11 µM
- TGI (U251 CNS): 18.9 µM and 17.7 µM
- GI50 (CCRF-CEM leukemia): 5.33 µM
- TGI (CCRF-CEM leukemia): 64.5 µM
- GI50 (MALME-3M melanoma): 3.04 µM and 9.7 µM
- TGI (MALME-3M melanoma): 28.8 µM and 62.2 µM
- GI50 (SF-268 CNS): 4.64 µM and 11.6 µM
- TGI (SF-268 CNS): 43.4 µM and > 100 µM
- GI50 (ACHN renal): 6.5 µM and 7.39 µM
- TGI (ACHN renal): > 100 µM
- GI50 (SN12C renal): 6.32 µM and 6.04 µM
- TGI (SN12C renal): > 100 µM
- GI50 (HCT-15 colon): 2.56 µM and 2.6 µM
- TGI (HCT-15 colon): > 100 µM
- GI50 (SK-OV-3 ovarian): 3.55 µM and 2.92 µM
- TGI (SK-OV-3 ovarian): 16.6 µM and 22.3 µM
- GI50 (TK-10 renal): 4.47 µM and 7.22 µM
- TGI (TK-10 renal): 38.9 µM and 91.6 µM
- GI50 (EKVX NSCLC): 5.33 µM and 5.17 µM
- TGI (EKVX NSCLC): > 100 µM
- GI50 (DU-145 prostate): 4.14 µM and 5.93 µM
- TGI (DU-145 prostate): > 100 µM
- GI50 (SK-MEL-28 melanoma): 4.82 µM and 3.26 µM
- TGI (SK-MEL-28 melanoma): 48.8 µM and 27.5 µM
- GI50 (SR leukemia): 0.736 µM
- TGI (SR leukemia): 5.3 µM
- GI50 (NCI-H23 lung): 4.47 µM and 2.16 µM
- TGI (NCI-H23 lung): 34.6 µM and 6.59 µM
- GI50 (BT-549 breast): 3.77 µM and 5.1 µM
- TGI (BT-549 breast): 28.9 µM and 29.2 µM
- GI50 (OVCAR-4 ovarian): 5.86 µM and 3.71 µM
- TGI (OVCAR-4 ovarian): > 100 µM
- GI50 (KM12 colon): 1.58 µM and 1.65 µM
- TGI (KM12 colon): 16.2 µM and 21.5 µM
- GI50 (786-0 renal): 6.12 µM and 8.26 µM
- TGI (786-0 renal): 24.4 µM and 32 µM
- GI50 (HS 578T breast): 1.73 µM and 4.1 µM
- TGI (HS 578T breast): 7.64 µM and 59.3 µM
- GI50 (RXF 393 renal): 2.93 µM and 2.86 µM
- TGI (RXF 393 renal): 12.2 µM and 19.3 µM
- GI50 (PC-3 prostate): 3.75 µM and 3.74 µM
- TGI (PC-3 prostate): 36.2 µM and > 100 µM
- GI50 (NCI-H522 lung): 0.503 µM and 1.16 µM
- TGI (NCI-H522 lung): 5.01 µM and 9.45 µM
- GI50 (HCT-116 colon): 2.41 µM and 3.46 µM
- TGI (HCT-116 colon): 14.2 µM and 41 µM
- GI50 (OVCAR-3 ovarian): 1.68 µM and 1.91 µM
- TGI (OVCAR-3 ovarian): 5.26 µM and 7.3 µM
- GI50 (A549 NSCLC): 5.1 µM and 3.95 µM
- TGI (A549 NSCLC): 36.7 µM and > 100 µM
- GI50 (HL-60(TB) leukemia): 3.3 µM
- TGI (HL-60(TB) leukemia): 14.8 µM
- GI50 (SK-MEL-2 melanoma): 2.24 µM and 3.92 µM
- TGI (SK-MEL-2 melanoma): 8.35 µM and 16.7 µM
- GI50 (IGROV1 ovarian): 3.45 µM and 7.32 µM
- TGI (IGROV1 ovarian): 31.7 µM and > 100 µM
- GI50 (OVCAR-5 ovarian): 7.57 µM and 7.89 µM
- TGI (OVCAR-5 ovarian): > 100 µM
- GI50 (CAKI-1 renal): 1.62 µM and 3.57 µM
- TGI (CAKI-1 renal): 14.6 µM and 68.5 µM
- GI50 (MDA-MB-435): 0.375 µM and 0.382 µM
- TGI (MDA-MB-435): 3.19 µM and 9.02 µM
- GI50 (T-47D breast): 5.51 µM and 3.42 µM
- TGI (T-47D breast): 44.8 µM and 29.2 µM
- GI50 (UACC-62 melanoma): 3.24 µM and 5.32 µM
- TGI (UACC-62 melanoma): 17.6 µM and 23.9 µM
- GI50 (OVCAR-8 ovarian): 3.79 µM and 3.55 µM
- TGI (OVCAR-8 ovarian): 19.1 µM and 28.1 µM
- GI50 (RPMI-8226 leukemia): 1.8 µM and 2.28 µM
- TGI (RPMI-8226 leukemia): 7.43 µM and 10.9 µM
- GI50 (HT29 colon): 1.32 µM and 2.11 µM
- TGI (HT29 colon): 11.6 µM and 16.4 µM
- GI50 (M14 melanoma): 2.13 µM and 2.95 µM
- TGI (M14 melanoma): 10.8 µM and 16.8 µM
- GI50 (HOP-62 NSCLC): 5.11 µM and 2.96 µM
- TGI (HOP-62 NSCLC): 39.6 µM and 20.5 µM
- GI50 (NCI-H226 lung): 7.81 µM and 9.07 µM
- TGI (NCI-H226 lung): 51.6 µM and 47.2 µM
- GI50 (SNB-19 CNS): 4.38 µM and 16 µM
- TGI (SNB-19 CNS): > 100 µM
- GI50 (SF-539 CNS): 2.88 µM and 3.5 µM
- TGI (SF-539 CNS): 11.5 µM and 25.7 µM
- GI50 (UO-31 renal): 3.65 µM and 5.86 µM
- TGI (UO-31 renal): 32 µM and > 100 µM
- GI50 (K-562 leukemia): 0.553 µM
- TGI (K-562 leukemia): 64.9 µM
- GI50 (UACC-257 melanoma): 6.56 µM and 4.76 µM
- TGI (UACC-257 melanoma): 30.8 µM and 32.6 µM
- TGI (A498 renal): 7.45 µM and 4.58 µM
